Source: patent US12065407B2, “Dual acting FKBP12 and FKBP52 inhibitors” (PLEX PHARMACEUTICALS, INC., priority 2017, dated 2024)
Where “and” joins values, the source holds several entries; their conditions need not be identical. Equal entries are not always repeated. Where two headings read alike, the source gives them in different places.

Legend:
[1] = tested on: PC12 rat pheochromocytoma cells; experiment: Neuroprotection from 6-hydroxydopamine in PC12 cells (WST-8); type: cell-based; conditions: WST-8 assay, FIG. 1
Procedure: (§1) BE(2)-M17 human neuroblastoma cells engineered to stably express either wild type or A53T mutant α-synuclein, PC12 rat pheochromocytoma, or SH-SY5Y human neuroblastoma cells were cultured in 96-well cell culture dishes in a humidified incubator at 37° C., 5% CO2. The growth medium was supplemented with 0.1% dimethyl sulfoxide (vehicle control) or compounds dissolved in dimethyl sulfoxide. Following 2 hours of exposure to compounds, the growth medium was further supplemented with 6-hydroxydopamine (or 0.1% ascorbic acid vehicle control) and incubated for an additional 24-48 hours.
Cell viability was measured by reduction of WST-8 or AlamarBlue® and the relative protection from 6-hydroxydopamine was measured by calculating the percentage of viable cells normalized to 6-hydroxydopamine treated cells in the absence of compound. See FIGS. 1A and 1B for neuroprotection observed in PC12 cells treated with dual acting FKBP12 and FKBP52 inhibitory exemplary compounds CAP01687 (FIG. 1A) and CAP01693 (FIG. 1B) measured using WST-8 assay. Specifically, FIGS. 1A and 1B, show relative percent protection from 6-OHDA, the vehicle control being set to 0% relative protection. […] The bars in FIGS. 3A and 3B depict relative percent fluorescence, which is proportional to cell viability, with the vehicle control being 100%.] […]

[2] = Microsomal stability (Clint assay), human liver microsome; type: in vitro ADME; conditions: both sexes, liver microsomes, pH 7.4, 1 μM compound, 0.5 mg/mL protein, 1 mM NADPH, 37° C.; for microsomal CLint at 1 μM: read-out: Clearance CL int (human microsomes); for half-life at 1 μM: read-out: Human microsomes T1/2
Procedure: (§2) Microsomal stability measurements were carried out by Clint assay. Test compounds were incubated with liver microsome, and metabolic stability was determined over 45 minutes. The experimental conditions were as follows. […]

[3] = Distribution of inhibitors in plasma and brain after intravenous dosing of mice; type: in vivo; conditions: 1 mg/kg IV; for Plasma Concentrations, mean: n = 5; for concentration at 1 h / concentration at 0.15 h / concentration at 0.5 h: male, CD1, mouse, iv, 1 mg/kg
Procedure: Distribution of inhibitors in plasma and brain tissue was examined after intravenous dosing of mice with inhibitors. The experimental conditions were as follows: Mice: male CD1 about 8 weeks old; body weight: about 25 g; No. of groups: one; No. of animals per group: 5; vehicle for IV dosing: DMSO; dosage: 1 mg/kg.
Plasma samples were separated by centrifugation in presence of K2-EDTA as anticoagulant. Brain tissue were homogenized in phosphate buffer saline and processed for bioanalysis as per standard practice. Samples were analyzed by a discovery grade bio-analytical method using LC-MS/MS method.

[4] = Microsomal stability (Clint assay), rat liver microsome; type: in vitro ADME; conditions: male, Sprague-Dawley, liver microsomes, pH 7.4, 1 μM compound, 0.5 mg/mL protein, 1 mM NADPH, 37° C.; for microsomal CLint at 1 μM: read-out: Clearance CL int (rat microsomes); for half-life at 1 μM: read-out: Rat microsomes T1/2
Procedure: as §2

[5] = tested on: A53T mutant α-synuclein overexpressing BE(2)-M17 cells (M3.2); experiment: Neuroprotection in A53T mutant α-synuclein overexpressing BE(2)-M17 cells (M3.2); type: cell-based, human; conditions: for Neuroprotection (cell viability): A53T mutant α-synuclein cells (M3.2), Alamar Blue assay
Procedure: as §1
See FIGS. 1A and 1B for neuroprotection observed in PC12 cells treated with dual acting FKBP12 and FKBP52 inhibitory exemplary compounds CAP01687 (FIG. 1A) and CAP01693 (FIG. 1B) measured using WST-8 assay. Specifically, FIGS. 1A and 1B, show relative percent protection from 6-OHDA, the vehicle control being set to 0% relative protection. […] Neuroprotection was also observed in A53T mutant α-synuclein overexpressing BE(2)-M17 cells (M3.2) treated with CAP01687 (FIG. 3B). The bars in FIGS. 3A and 3B depict relative percent fluorescence, which is proportional to cell viability, with the vehicle control being 100%.]
as §1, with “pheochromocytoma cells,” for “pheochromocytoma,”, “C. and” for “C.,”, “(OHDA) or” for “(or”, “hours. […]” for “hours.”

[6] = tested on: WT21 cells; experiment: Cytotoxicity to WT21 cells (MTS tetrazolium dye reduction); type: cell-based, human; conditions: concentrations under 50 μM
[7] = tested on: wild type α-synuclein overexpressing BE(2)-M17 cells (WT21); experiment: Neuroprotection in wild type α-synuclein overexpressing BE(2)-M17 cells (WT21); type: cell-based, human; conditions: Alamar Blue assay
Procedure: as §1
Cell viability was measured by reduction of WST-8 or AlamarBlue® and the relative protection from 6-hydroxydopamine was measured by calculating the percentage of viable cells normalized to 6-hydroxydopamine treated cells in the absence of compound. See FIGS. 1A and 1B for neuroprotection observed in PC12 cells treated with dual acting FKBP12 and FKBP52 inhibitory exemplary compounds CAP01687 (FIG. 1A) and CAP01693 (FIG. 1B) measured using WST-8 assay. Specifically, FIGS. 1A and 1B, show relative percent protection from 6-OHDA, the vehicle control being set to 0% relative protection. […] Neuroprotection was also observed in A53T mutant α-synuclein overexpressing BE(2)-M17 cells (M3.2) treated with CAP01687 (FIG. 3B). The bars in FIGS. 3A and 3B depict relative percent fluorescence, which is proportional to cell viability, with the vehicle control being 100%.]
BE(2)-M17 human neuroblastoma cells engineered to stably express either wild type or A53T mutant α-synuclein, PC12 rat pheochromocytoma cells, or SH-SY5Y human neuroblastoma cells were cultured in 96-well cell culture dishes in a humidified incubator at 37° C. and 5% CO2. The growth medium was supplemented with 0.1% dimethyl sulfoxide (vehicle control) or compounds dissolved in dimethyl sulfoxide. […]
Cell viability was measured by reduction of WST-8 or alamarBlue® and the relative protection from 6-hydroxydopamine was measured by calculating the percentage of viable cells normalized to 6-hydroxydopamine treated cells in the absence of compound.

[8] = tested on: PC12 cells; experiment: Neurite outgrowth; type: cell-based, rat; conditions: light microscopy, bar graph
Procedure: PC12 rat pheochromocytoma or SH-SY5Y human neuroblastoma cells were grown on glass coverslips in a 24-well cell culture dish in a humidified incubator at 37° C., 5% CO2. After 24 hours, the cells were washed with phosphate buffered saline and the serum concentration of the growth medium was reduced to 0.2%. After 16 hours in the reduced serum medium, 0.1% dimethyl sulfoxide (vehicle control) or compounds dissolved in dimethyl sulfoxide were added to the growth medium. Following 2 hours of exposure to compounds, the growth medium was supplemented with 6-hydroxydopamine (or 0.1% ascorbic acid vehicle control), nerve growth factor (or phosphate-buffered saline vehicle control), in addition to 0.1% dimethyl sulfoxide (vehicle control) or compounds dissolved in dimethyl sulfoxide. […] Phase contrast images were captured at 20× magnification and the percentage of cells with neurites longer than 20 μm were scored for approximately 200 cells in each condition using ImageJ software.
PC12 rat pheochromocytoma or SH-SY5Y human neuroblastoma cells were grown on glass coverslips in a 24-well cell culture dish in a humidified incubator at 37° C. and 5% CO2. […] Phase contrast images were captured at 20× magnification and the percentage of cells with neurites longer than 20 μm were scored for approximately 200 cells in each condition using ImageJ software.

[9] = brain, 1 h, n = 5, read-out: Brain concentrations, mean
[10] = plasma, 0.15 h, n = 5, read-out: Plasma Concentrations, mean
[11] = plasma, 0.5 h, n = 5, read-out: Plasma Concentrations, mean
[12] = plasma, 0.5 h, read-out: Plasma Concentrations, individual animals
[13] = plasma, 1 h, n = 5, read-out: Plasma Concentrations, mean
[14] = plasma, 1 h, read-out: Plasma Concentrations, individual animals

Question: For `O=C(N[C@@H](Cc1ccc(Cl)cc1)C(=O)NCCCc1cccnc1)c1ccc2cc(F)ccc2c1` [CAP01693, (2S)-3-(4-chlorophenyl)-2-[(6-fluoronaphthalen-2-yl)-formamido]-N-[3-(pyridine-3-yl)propyl]propanamide], which “Neuroprotection (relative percent protection from 6-OHDA)” value [1] is on record?
Answer: neuroprotection

Question: Which microsomal CLint at 1 μM [2] does the source give for `O=C(N[C@H](C(=O)NCCCc1ccccc1)c1ccccc1)c1ccc2cc(F)ccc2c1` [CAP01723, (2S)-2-[(6-fluoronaphthalen-2-yl)formamido]-2-phenyl-N-(3-phenylpropyl)acetamide] here?
Answer: 167 µL/min/mg

Question: What about the half-life at 1 μM [2] of the same compound?
Answer: 8.29 min

Question: And the “Plasma Concentrations, individual animals” value ([3]; 0.15 h)?
Answer: 258.2 ng/mL and 225.3 ng/mL and 225.4 ng/mL and 244.2 ng/mL

Question: What about the “Plasma Concentrations, mean” value ([3]; 0.15 h) of the same compound?
Answer: 239.7 ng/mL

Question: And the “Plasma Concentrations, individual animals” value ([3]; 0.5 h)?
Answer: 106.1 ng/mL and 97.6 ng/mL and 102.6 ng/mL and 93.2 ng/mL

Question: And the “Plasma Concentrations, mean” value ([3]; 0.5 h)?
Answer: 100.5 ng/mL

Question: And the “Brain concentrations, individual animals” value ([3]; 1 h)?
Answer: 17.2 ng/G and 14.6 ng/G and 31.9 ng/G and 9.5 ng/G and 22.3 ng/G

Question: What about the “Plasma Concentrations, individual animals” value ([3]; 1 h) of the same compound?
Answer: 41.1 ng/mL (2×) and 58.7 ng/mL (2×) and 53.5 ng/mL (2×) and 45.4 ng/mL (2×) and 50.3 ng/mL

Question: And the “Plasma Concentrations, mean” value ([3]; 1 h)?
Answer: 49.8 ng/mL

Question: What about the concentration at 1 h [3, 9] of the same compound?
Answer: 19.1 ng/g

Question: What about the concentration at 0.15 h [3, 10] of the same compound?
Answer: 240 ± 14.2 ng/mL

Question: And the concentration at 0.15 h ([3]; plasma, 0.15 h, read-out: Plasma Concentrations, individual animals)?
Answer: 246 ng/mL

Question: And the concentration at 0.5 h [3, 11]?
Answer: 100 ± 5.1 ng/mL

Question: What about the concentration at 0.5 h [3, 12] of the same compound?
Answer: 103 ng/mL

Question: What about the concentration at 1 h [3, 13] of the same compound?
Answer: 49.8 ± 6.8 ng/mL

Question: And the concentration at 1 h [3, 14]?
Answer: 50.3 ng/mL

Question: What about the microsomal CLint at 1 μM [4] of the same compound?
Answer: 130 µL/min/mg

Question: What about the half-life at 1 μM [4] of the same compound?
Answer: 10.7 min

Question: Which results are given for `COc1ccc(/N=N/c2nc3ccccc3n2C)c2ccccc12` [CAP01324]?
Answer: Neuroprotection (relative change in absorbance, MTS) ([5]; A53T mutant cells, 100 nM, MTS tetrazolium dye): neuroprotection; Cytotoxicity (relative change in absorbance, MTS) [6]: not cytotoxic

Question: Which “Neuroprotection (cell viability)” value [5] does the source give for `O=C(N[C@@H](Cc1ccc(Cl)cc1)C(=O)NCCCc1ccccc1)c1ccc2cc(F)ccc2c1` [CAP01687] here?
Answer: neuroprotection

Question: What about the “Neuroprotection (cell viability)” value [7] of the same compound?
Answer: neuroprotection

Question: And the “Neurite outgrowth (percentage of cells with neurites longer than 20 μm)” value [8]?
Answer: promotion of neurite outgrowth

Question: And the “Neuroprotection (relative percent protection from 6-OHDA)” value [1]?
Answer: neuroprotection

Question: With `CC(C)CCn1c(/C=C/c2ccc(F)cc2)nc2ccccc21` [CAP01559] as the compound, how does the “Neuroprotection (cell viability)” value [5] read?
Answer: neuroprotection

Question: And the “Neuroprotection (cell viability)” value [7]?
Answer: neuroprotection

Question: For `CCn1c(/C=C/c2ccc(Cl)cc2)nc2ccccc21` [CAP01510], which “Neurite outgrowth (percentage of cells with neurites longer than 20 μm)” value [8] is on record?
Answer: dose dependent promotion of neurite outgrowth

Question: Which results are given for `Cc1ccc(Cn2c(/C=C/c3ccc(F)cc3)nc3ccccc32)cc1` [CAP01551, 2-[2-(4-fluorophenyl)vinyl]-1-(4-methylbenzyl)-1H-benzimidazole]?
Answer: Neuroprotection (cell viability) [7]: neuroprotection; microsomal CLint at 1 μM [2]: 52.4 µL/min/mg; half-life at 1 μM [2]: 26.4 min; Plasma Concentrations, individual animals ([3]; 0.15 h): 217.36 ng/mL and 295.33 ng/mL and 122.46 ng/mL and 203.22 ng/mL and 134.60 ng/mL; Plasma Concentrations, mean ([3]; 0.15 h): 194.59 ng/mL; Plasma Concentrations, individual animals ([3]; 0.5 h): 88.98 ng/mL and 46.31 ng/mL and 62.88 ng/mL and 56.74 ng/mL; Plasma Concentrations, mean ([3]; 0.5 h): 65.36 ng/mL; Brain concentrations, individual animals ([3]; 1 h): 81.88 ng/G and 57.91 ng/G and 63.84 ng/G and 74.50 ng/G; Plasma Concentrations, individual animals ([3]; 1 h): 52.86 ng/mL (2×) and 27.45 ng/mL (2×) and 27.24 ng/mL (2×) and 27.74 ng/mL (2×) and 33.70 ng/mL; Plasma Concentrations, mean ([3]; 1 h): 33.80 ng/mL; concentration at 1 h [3, 9]: 70.4 ng/g; concentration at 1 h ([3]; brain, 1 h, read-out: Brain concentrations, individual animals): 73.8 ng/g; concentration at 0.15 h [3, 10]: 195 ± 69.9 ng/mL; concentration at 0.5 h [3, 11]: 65.4 ± 16.2 ng/mL; concentration at 0.5 h [3, 12]: 71.9 ng/mL; concentration at 1 h [3, 13]: 33.8 ± 11 ng/mL; concentration at 1 h [3, 14]: 33.7 ng/mL; microsomal CLint at 1 μM [4]: 202 µL/min/mg; half-life at 1 μM [4]: 6.85 min
